Calls of active or inactive are those of the source. The rule behind the calls is not given here.
How the values were obtained:
J774.A1 = experiment: Cytotoxicity against mouse J774.A1 cells assessed as reduction in cell viability at 10 uM incubated for 24 hrs by MTT assay; type: toxicity, cell-based; details: j774.a1, 24 h
[1] = target: NACHT, LRR and PYD domains-containing protein 3 (Homo sapiens) (UniProt Q96P20); experiment: Inhibition of NLRP3 mediated in HEME-induced inflammasome in human PMA differentiated THP-1 cells assessed as reduction in IL-1beta level in presence of LPS at 1 uM pretreated for 1 hr followed by hemin addition measured after 1 hrs by ELISA method; type: cell-based; details: time 2.0 hrs
[2] = target: NACHT, LRR and PYD domains-containing protein 3 (Homo sapiens) (UniProt Q96P20); experiment: Inhibition of NLRP3 mediated in HEME-induced inflammasome in human PMA differentiated THP-1 cells assessed as reduction in IL-1beta level in presence of LPS at 10 uM pretreated for 1 hr followed by hemin addition measured after 1 hrs by ELISA method relative to control; type: cell-based; details: time 2.0 hrs
[3] = target: NACHT, LRR and PYD domains-containing protein 3 (Mus musculus) (UniProt Q8R4B8); experiment: Inhibition of NLRP3 inflammasome in mouse J774.A1 cells assessed as reduction in TNF-alpha in presence of LPS at 10 uM pretreated for 1 hr followed by LPS stimulation measured after 24 hrs by ELISA method; type: cell-based; details: time 25.0 hrs
[4] = target: NACHT, LRR and PYD domains-containing protein 3 (Homo sapiens) (UniProt Q96P20); experiment: Inhibition of NLRP3 mediated in HEME-induced inflammasome in human PMA differentiated THP-1 cells assessed as reduction in IL-1beta level in presence of LPS at 0.1 uM pretreated for 1 hr followed by hemin addition measured after 1 hrs by ELISA method relative to control; type: cell-based; details: time 2.0 hrs
[5] = target: NACHT, LRR and PYD domains-containing protein 3 (Homo sapiens) (UniProt Q96P20); experiment: Inhibition of NLRP3 mediated in HEME-induced inflammasome in human PMA differentiated THP-1 cells assessed as reduction in IL-1beta level in presence of LPS at 1 uM pretreated for 1 hr followed by hemin addition measured after 1 hrs by ELISA method relative to control; type: cell-based; details: time 2.0 hrs
[6] = target: NACHT, LRR and PYD domains-containing protein 3 (Mus musculus) (UniProt Q8R4B8); experiment: Inhibition of NLRP3 inflammasome in mouse J774.A1 cells assessed as reduction in TNF-alpha in presence of LPS at 0.1 to 1 uM pretreated for 1 hr followed by LPS stimulation measured after 24 hrs by ELISA method; type: cell-based; details: dose 0.1-1 µM, time 25.0 hrs
Mus musculus [7] = experiment: Antiinflammatory activity against LPS/HEME-induced Balb/C mouse model assessed as reduction of IL-1 beta secretion at 30 mg/kg, ip administered for 30 mins followed by LPS for 4 hrs incubation and later stimulated with HEME for 1 hrs by ELISA; type: functional, organism-based; details: time 330.0 min
[8] = Metabolic stability in human liver microsomes assessed as drug degradation measured after 5 mins by LC-MS method relative to control; type: ADME, Microsome; details: read-out: Drug degradation
Mus musculus [9] = experiment: Antiinflammatory activity against LPS/HEME-induced Balb/C mouse model assessed as reduction of IL-1 beta secretion at 10 mg/kg, ip administered for 30 mins followed by LPS for 4 hrs incubation and later stimulated with HEME for 1 hrs by ELISA; type: functional, organism-based; details: time 330.0 min
[10] = target: NACHT, LRR and PYD domains-containing protein 3 (Mus musculus) (UniProt Q8R4B8); experiment: Inhibition of NLRP3 inflammasome in mouse J774.A1 cells assessed as reduction in IL-6 in presence of LPS at 0.1 to 1 uM pretreated for 1 hr followed by LPS stimulation measured after 24 hrs by ELISA method; type: cell-based; details: dose 0.1-1 µM, time 25.0 hrs
[11] = Metabolic stability in mouse liver microsomes assessed as drug degradation in the presence of NADPH measured after 5 mins by LC-MS method; type: ADME, Microsome
[12] = target: NACHT, LRR and PYD domains-containing protein 3 (Homo sapiens) (UniProt Q96P20); experiment: Inhibition of NLRP3 mediated in HEME-induced inflammasome in human PMA differentiated THP-1 cells assessed as reduction in IL-1beta level in presence of LPS at 0.1 to 10 uM pretreated for 1 hr followed by hemin addition measured after 1 hrs by ELISA method; type: cell-based; details: dose 0.1-10 µM, time 2.0 hrs
[13] = Metabolic stability in mouse liver microsomes in presence of NADPH measured after 5 mins by single ion monitoring mode based LC-MS method; type: ADME, Microsome
[14] = Metabolic stability in mouse liver microsomes assessed as drug degradation measured after 5 mins in absence of NADPH by single ion monitoring mode based LC-MS method relative to control; type: ADME, Microsome; details: read-out: Drug degradation
Mus musculus [15] = experiment: Antiinflammatory activity against LPS/HEME-induced Balb/C mouse model assessed as reduction of IL-1 beta secretion at 1 mg/kg, ip administered for 30 mins followed by LPS for 4 hrs incubation and later stimulated with HEME for 1 hrs by ELISA; type: functional, organism-based; details: time 330.0 min
[16] = target: NACHT, LRR and PYD domains-containing protein 3 (Homo sapiens) (UniProt Q96P20); experiment: Inhibition of NLRP3 mediated in HEME-induced inflammasome in human PMA differentiated THP-1 cells assessed as reduction in IL-1beta level in presence of LPS at 10 uM pretreated for 1 hr followed by hemin addition measured after 1 hrs by ELISA method; type: cell-based; details: time 2.0 hrs
[17] = target: NACHT, LRR and PYD domains-containing protein 3 (Mus musculus) (UniProt Q8R4B8); experiment: Inhibition of NLRP3 inflammasome in mouse J774.A1 cells assessed as reduction in IL-6 in presence of LPS at 10 uM pretreated for 1 hr followed by LPS stimulation measured after 24 hrs by ELISA method; type: cell-based; details: time 25.0 hrs

Chain of NACHT, LRR and PYD domains-containing protein 3 (Homo sapiens) (Q96P20 whole entry, the tested form may be a part): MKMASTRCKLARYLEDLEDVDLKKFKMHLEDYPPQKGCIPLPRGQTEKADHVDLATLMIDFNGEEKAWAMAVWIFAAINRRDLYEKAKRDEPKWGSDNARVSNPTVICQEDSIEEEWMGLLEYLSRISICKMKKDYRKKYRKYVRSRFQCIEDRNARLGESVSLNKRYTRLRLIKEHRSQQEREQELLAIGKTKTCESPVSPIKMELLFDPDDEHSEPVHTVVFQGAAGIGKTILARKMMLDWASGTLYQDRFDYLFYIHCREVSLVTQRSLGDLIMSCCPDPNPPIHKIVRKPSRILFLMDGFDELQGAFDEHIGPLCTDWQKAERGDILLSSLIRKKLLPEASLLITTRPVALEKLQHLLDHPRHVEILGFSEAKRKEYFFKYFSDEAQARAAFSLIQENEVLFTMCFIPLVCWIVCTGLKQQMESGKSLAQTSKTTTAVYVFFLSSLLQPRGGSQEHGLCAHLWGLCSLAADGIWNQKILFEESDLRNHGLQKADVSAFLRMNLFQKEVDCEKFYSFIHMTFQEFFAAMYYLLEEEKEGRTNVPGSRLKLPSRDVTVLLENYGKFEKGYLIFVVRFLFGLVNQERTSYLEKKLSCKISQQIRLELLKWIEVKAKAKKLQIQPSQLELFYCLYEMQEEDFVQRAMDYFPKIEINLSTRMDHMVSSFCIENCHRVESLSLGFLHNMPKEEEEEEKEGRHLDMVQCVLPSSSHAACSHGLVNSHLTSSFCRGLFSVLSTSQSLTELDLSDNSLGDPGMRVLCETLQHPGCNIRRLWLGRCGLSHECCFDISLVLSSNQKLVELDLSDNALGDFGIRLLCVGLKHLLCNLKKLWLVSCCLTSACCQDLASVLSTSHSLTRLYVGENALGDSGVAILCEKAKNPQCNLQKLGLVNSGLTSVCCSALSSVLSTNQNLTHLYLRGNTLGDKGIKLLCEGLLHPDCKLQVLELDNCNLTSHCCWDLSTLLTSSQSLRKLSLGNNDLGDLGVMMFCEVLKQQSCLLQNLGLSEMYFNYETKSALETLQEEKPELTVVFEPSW
Chain of NACHT, LRR and PYD domains-containing protein 3 (Mus musculus) (Q8R4B8 whole entry, the tested form may be a part): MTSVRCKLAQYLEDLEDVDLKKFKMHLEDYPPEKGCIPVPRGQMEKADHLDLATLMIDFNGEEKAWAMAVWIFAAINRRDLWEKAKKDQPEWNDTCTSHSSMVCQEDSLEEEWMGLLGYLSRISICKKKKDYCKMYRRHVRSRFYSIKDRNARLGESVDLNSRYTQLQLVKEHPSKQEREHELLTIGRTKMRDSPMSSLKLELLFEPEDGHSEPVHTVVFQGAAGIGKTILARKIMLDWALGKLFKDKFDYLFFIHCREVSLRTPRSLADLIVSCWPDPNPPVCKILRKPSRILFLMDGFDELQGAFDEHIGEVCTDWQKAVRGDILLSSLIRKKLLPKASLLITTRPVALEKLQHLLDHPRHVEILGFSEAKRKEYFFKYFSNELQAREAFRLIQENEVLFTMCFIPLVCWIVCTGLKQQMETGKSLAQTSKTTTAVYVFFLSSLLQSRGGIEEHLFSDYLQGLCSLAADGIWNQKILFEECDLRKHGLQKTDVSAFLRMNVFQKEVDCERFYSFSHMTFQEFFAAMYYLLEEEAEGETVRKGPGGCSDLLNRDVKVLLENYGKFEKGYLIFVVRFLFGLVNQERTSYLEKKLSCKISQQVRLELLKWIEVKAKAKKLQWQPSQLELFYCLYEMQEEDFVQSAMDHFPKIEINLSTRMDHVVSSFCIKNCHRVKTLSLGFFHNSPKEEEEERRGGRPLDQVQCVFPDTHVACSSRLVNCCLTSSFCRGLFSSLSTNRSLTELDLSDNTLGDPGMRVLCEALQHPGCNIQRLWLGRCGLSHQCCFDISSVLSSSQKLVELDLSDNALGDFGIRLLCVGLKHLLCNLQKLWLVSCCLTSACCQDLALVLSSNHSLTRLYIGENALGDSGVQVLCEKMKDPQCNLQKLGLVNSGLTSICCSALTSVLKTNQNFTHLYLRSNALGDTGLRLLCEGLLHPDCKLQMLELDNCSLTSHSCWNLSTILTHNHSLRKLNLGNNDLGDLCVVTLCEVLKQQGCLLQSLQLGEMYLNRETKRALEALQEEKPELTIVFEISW

| Compound | Activity (J774.A1) | inhibition [1] | inhibition [6] | inhibition [10] | other results |
| --- | --- | --- | --- | --- | --- |
| CCCC[Si](C)(C)c1cc(O)c(C/C=C(\C)CCC=C(C)C)c(O)c1 | Non-Toxic | – | – | – | – |
| C=C(C)[C@@H]1CCC(C)=C[C@H]1c1c(O)cc([Si](C)(C)CCCC)cc1O | Non-Toxic | – | – | – | – |
| CCCCCC[Si](C)(C)c1cc(O)c(C/C=C(\C)CCC=C(C)C)c(O)c1 | Non-Toxic | Active | – | – | inhibition [2]: 60% |
| C=C(C)[C@@H]1CCC(C)=C[C@H]1C1=C(O)C(=O)C([Si](C)(C)C)=CC1=O | Non-Toxic | – | Active | Active | inhibition [2]: > 80%; inhibition [3]: Active; inhibition [4]: > 20%; inhibition [5]: > 50%; Activity (Mus musculus [7]): Active; metabolised at 5 min [8]: 10%; Activity (Mus musculus [9]): Active; Drug degradation [11]: Stable |
| CCCCCC1=CC(=O)C(C/C=C(\C)CCC=C(C)C)=C(O)C1=O | – | – | – | – | inhibition [12]: inactive |
| C=C(C)[C@@H]1CCC(C)=C[C@H]1C1=C(O)C(=O)C(CCCCC)=CC1=O | – | – | – | – | inhibition [12]: inactive; Stability [13]: Stable; metabolised at 5 min [14]: < 20% |
| COc1cc2c(c(OC)c1OC)-c1ccc(OC)c(=O)cc1[C@@H](NC(C)=O)CC2 | – | – | – | – | Activity (Mus musculus [15]): Active |
| CC(C)=CCC/C(C)=C/Cc1c(O)cc([Si](C)(C)C)cc1O | Non-Toxic | – | – | – | – |
| CCCCCc1cc(O)c(C/C=C(\C)CCC=C(C)C)c(O)c1 | – | Active | – | – | – |
| CCCCCC[Si](C)(C)C1=CC(=O)C(C/C=C(\C)CCC=C(C)C)=C(O)C1=O | Non-Toxic | Active | inactive | inactive | inhibition [16]: Active; inhibition [17]: Active |
| CC(C)=CCC/C(C)=C/CC1=C(O)C(=O)C([Si](C)(C)C)=CC1=O | Non-Toxic | Active | inactive | inactive | inhibition [3]: Active; inhibition [16]: Active |
| CCCC[Si](C)(C)C1=CC(=O)C(C/C=C(\C)CCC=C(C)C)=C(O)C1=O | Non-Toxic | Active | inactive | inactive | inhibition [16]: Active; inhibition [17]: Active |
| C=C(C)[C@@H]1CCC(C)=C[C@H]1c1c(O)cc([Si](C)(C)CCCCCC)cc1O | Non-Toxic | – | – | – | – |
